# Measured values from US9617240B2 (TEIJIN PHARMA LIMITED, priority 2013, dated 2017).
# Target: T1, oxidase type xanthine oxidase (derived from buttermilk) (Bos taurus, UniProt P80457)
# T1 construct: oxidase type xanthine oxidase (derived from buttermilk, supplied by Calbiochem Novabiochem Corp.); purchased Calbiochem Novabiochem Corp; host or cells: buttermilk (natural source)
# Test: Xanthine oxidase inhibitory activity (absorbance change at 290 nm)
# Type: biochemical
# Conditions: xanthine substrate, 100 mM phosphate buffer, absorbance at 290 nm for 5 minutes; read-out: Inhibitory Activity (50% inhibitory concentration with respect to oxidase type xanthine oxidase)
# Method: The xanthine oxidase inhibitory activity was measured for the compounds synthesized according to the above Examples.
# After a test compound was dissolved in DMSO (manufactured by Sigma Co.) so that the concentration is 20 mM, the test compound was prepared and used at a desired concentration at the time of use.
# The evaluation of the xanthine oxidase inhibitory activity of the compounds of the present invention was conducted by partially modifying the method described in the literature (Method Enzymatic Analysis, 1, 521-522, 1974). The present evaluation is based on the oxidase type xanthine oxidase inhibitory activity evaluation. That is, a xanthine (manufactured by Sigma Co.) solution prepared at 10 mM in advance using a 20 mM sodium hydroxide solution was adjusted to 30 μM using a 100 mM phosphate buffer solution, and 75 μL/well of each solution was added into a 96-well plate. Aliquots (1.5 μL/well) of each test sample, which was diluted with DMSO so that the concentration is 100 times the final concentration, were added into a 96-well plate, and after mixing, the absorbance at 290 nm was measured by a microplate reader SPECTRA MAX Plus 384 (manufactured by Molecular Devices, LLC). Subsequently, oxidase type xanthine oxidase (derived from buttermilk, supplied by Calbiochem Novabiochem Corp.) was prepared at 30.6 mU/mL using a 100 mM phosphate buffer solution and 73.5 μL/well of each solution was added. Immediately after mixing, the change in absorbance at 290 nm was measured for 5 minutes. The enzyme activity when DMSO was used instead of a test compound solution was defined as 100%, the inhibitory rate of the test compounds was calculated and the 50% inhibitory concentration with respect to oxidase type xanthine oxidase was calculated by fitting to the dose-response curve.
# Note that the symbols (+, ++, +++) in the table represent inhibitory activity values as shown below.
# T1 sequence (P80457 whole entry): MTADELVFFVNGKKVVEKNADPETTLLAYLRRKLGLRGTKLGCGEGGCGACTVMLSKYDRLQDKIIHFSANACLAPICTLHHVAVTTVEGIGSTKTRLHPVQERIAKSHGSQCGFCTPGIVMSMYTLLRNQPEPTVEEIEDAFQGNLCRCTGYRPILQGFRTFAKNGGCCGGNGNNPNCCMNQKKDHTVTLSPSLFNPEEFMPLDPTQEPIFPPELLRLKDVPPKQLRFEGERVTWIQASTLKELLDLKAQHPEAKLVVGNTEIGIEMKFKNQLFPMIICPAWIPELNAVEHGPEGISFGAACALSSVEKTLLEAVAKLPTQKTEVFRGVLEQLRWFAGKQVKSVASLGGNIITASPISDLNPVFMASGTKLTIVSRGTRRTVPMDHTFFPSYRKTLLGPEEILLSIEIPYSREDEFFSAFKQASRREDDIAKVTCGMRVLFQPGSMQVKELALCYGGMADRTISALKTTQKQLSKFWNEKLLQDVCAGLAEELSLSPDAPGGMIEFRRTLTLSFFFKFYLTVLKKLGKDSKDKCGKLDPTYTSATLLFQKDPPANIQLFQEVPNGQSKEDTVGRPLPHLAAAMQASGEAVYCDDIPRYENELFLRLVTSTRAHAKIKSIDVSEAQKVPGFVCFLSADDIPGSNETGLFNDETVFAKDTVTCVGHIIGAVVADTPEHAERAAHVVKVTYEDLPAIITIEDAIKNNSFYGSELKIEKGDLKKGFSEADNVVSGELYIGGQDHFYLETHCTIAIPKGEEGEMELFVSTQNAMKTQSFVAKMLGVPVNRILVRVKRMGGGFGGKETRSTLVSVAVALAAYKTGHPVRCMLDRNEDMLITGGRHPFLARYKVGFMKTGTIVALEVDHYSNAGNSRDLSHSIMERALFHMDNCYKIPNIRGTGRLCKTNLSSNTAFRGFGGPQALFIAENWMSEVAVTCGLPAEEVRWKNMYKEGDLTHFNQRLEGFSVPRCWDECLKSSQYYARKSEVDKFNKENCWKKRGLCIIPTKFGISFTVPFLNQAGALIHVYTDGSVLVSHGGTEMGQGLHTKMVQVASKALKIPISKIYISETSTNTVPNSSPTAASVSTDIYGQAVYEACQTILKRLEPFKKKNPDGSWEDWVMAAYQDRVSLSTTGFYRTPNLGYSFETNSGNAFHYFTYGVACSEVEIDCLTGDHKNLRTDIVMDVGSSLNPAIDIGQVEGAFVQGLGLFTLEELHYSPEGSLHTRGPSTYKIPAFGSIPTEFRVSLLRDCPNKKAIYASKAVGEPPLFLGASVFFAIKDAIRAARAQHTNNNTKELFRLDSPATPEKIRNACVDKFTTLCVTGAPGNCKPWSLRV
row,Compound,IC50 [nM]
1,"N#Cc1cc(-n2cc(C(=O)O)cn2)ncc1-c1ccoc1 [Compound 23, 1-[4-cyano-5-(furan-3-yl)pyridin-2-yl]-1H-pyrazole-4-carboxylic acid]",5 to 10
2,"N#Cc1cc(-n2cc(C(=O)O)c(N)n2)ncc1-c1ccc(F)cc1 [Compound 99, 3-amino-1-[4-cyano-5-(4-fluorophenyl)pyridin-2-yl]-1H-pyrazole-4-carboxylic acid]",1 to 5
3,"COc1ccc(F)c(-c2ccc(-n3cc(C(=O)O)cn3)nc2C#N)c1 [Compound 91, 1-[6-cyano-5-(2-fluoro-5-methoxyphenyl)pyridin-2-yl]-1H-pyrazole-4-carboxylic acid]",5 to 10
4,"N#Cc1cc(-n2cc(C(=O)O)cn2)ncc1-c1ccc(C(F)(F)F)cc1 [Compound 43, 1-{4-cyano-5-[4-(trifluoromethyl)phenyl]pyridin-2-yl}-1H-pyrazole-4-carboxylic acid]",1 to 5
5,"Cc1cccc(-c2cnc(-n3cc(C(=O)O)c(N)n3)cc2C#N)c1 [Compound 101, 3-amino-1-[4-cyano-5-(3-methylphenyl)pyridin-2-yl]-1H-pyrazole-4-carboxylic acid]",1 to 5
6,"CC(C)(C)c1ccc(-c2cnc(-n3cc(C(=O)O)cn3)cc2C#N)cc1 [Compound 53, 1-[5-(4-tert-butylphenyl)-4-cyanopyridin-2-yl]-1H-pyrazole-4-carboxylic acid]",1 to 5
7,"N#Cc1nc(-n2cc(C(=O)O)cn2)ccc1-c1ccc(F)cc1F [Compound 90, 1-[6-cyano-5-(2,4-difluorophenyl)pyridin-2-yl]-1H-pyrazole-4-carboxylic acid]",≥ 10
8,"COc1cnccc1-c1cnc(-n2cc(C(=O)O)cn2)cc1C#N [Compound 24, 1-[4-cyano-5-(3-methoxypyridin-4-yl)pyridin-2-yl]-1H-pyrazole-4-carboxylic acid]",≥ 10
9,"Cc1ccc(-c2ncc(-n3cc(C(=O)O)cn3)cc2C#N)cc1F [Compound 83, 1-[5-cyano-6-(3-fluoro-4-methylphenyl)pyridin-3-yl]-1H-pyrazole-4-carboxylic acid]",5 to 10
10,"Cc1ccc(-c2cnc(-n3cc(C(=O)O)c(N)n3)cc2C#N)c(F)c1 [Compound 103, 3-amino-1-[4-cyano-5-(2-fluoro-4-methylphenyl)pyridin-2-yl]-1H-pyrazole-4-carboxylic acid]",1 to 5
11,"CCOc1cccc(-c2ccc(-n3cc(C(=O)O)cn3)nc2C#N)c1 [Compound 93, 1-[6-cyano-5-(3-ethoxyphenyl)pyridin-2-yl]-1H-pyrazole-4-carboxylic acid]",≥ 10
12,N#Cc1nc(-n2cc(C(=O)O)cn2)ccc1-c1ccc(F)cc1 [Compound 89],≥ 10
13,"N#Cc1cc(-n2cc(C(=O)O)cn2)ncc1-c1ccc2ccccc2c1 [Compound 57, 1-[4-cyano-5-(naphthalen-2-yl)pyridin-2-yl]-1H-pyrazole-4-carboxylic acid]",1 to 5
14,"N#Cc1cc(-n2cc(C(=O)O)cn2)ncc1-c1ccc(-c2ccccc2)cc1 [Compound 65, 1-[4-cyano-5-(4-phenylphenyl)pyridine-2-yl]-1H-pyrazole-4-carboxyic acid]",1 to 5
15,"COc1cccc(F)c1-c1ccc(-n2cc(C(=O)O)cn2)nc1C#N [Compound 96, 1-[6-cyano-5-(2-fluoro-6-methoxyphenyl)pyridin-2-yl]-1H-pyrazole-4-carboxylic acid]",≥ 10
16,"N#Cc1cc(-n2cc(C(=O)O)cn2)ncc1-c1cccc(OC(F)F)c1 [Compound 46, 1-{4-cyano-5-[3-(difluoromethoxy)phenyl]pyridin-2-yl}-1H-pyrazole-4-carboxylic acid]",5 to 10
17,"N#Cc1cc(-n2cc(C(=O)O)cn2)ncc1-c1ccc(OCc2ccccc2)cc1 [Compound 66, 1-{5-[4-(benzyloxy)phenyl]-4-cyanopyridine-2-yl}-1H-pyrazole-4-carboxylic acid]",1 to 5
18,"Cc1cc(-c2ncc(-n3cc(C(=O)O)cn3)cc2C#N)ccc1F [Compound 82, 1-[5-cyano-6-(4-fluoro-3-methylphenyl)pyridin-3-yl]-1H-pyrazole-4-carboxyic acid]",≥ 10
19,"N#Cc1cc(-n2cc(C(=O)O)cn2)ncc1-c1ccc(C(=O)N2CCOCC2)cc1 [Compound 70, 1-(4-cyano-5-{4-[(morpholine-4-yl)carbonyl]phenyl}pyridine-2-yl)-1H-pyrazole-4-carboxylic acid]",1 to 5
20,"COCc1ccc(-c2cnc(-n3cc(C(=O)O)cn3)cc2C#N)cc1 [Compound 55, 1-{4-cyano-5-[4-(methoxymethyl)phenyl]pyridin-2-yl}-1H-pyrazole-4-carboxylic acid]",1 to 5
21,"N#Cc1cc(-n2cc(C(=O)O)cn2)ncc1-c1cccc([N+](=O)[O-])c1 [Compound 72, 1-[4-cyano-5-(3-nitrophenyl)pyridin-2-yl]-1H-pyrazole-4-carboxylic acid]",≥ 10

# Next, values leading:
row,IC50 [nM],Compound
1,1 to 5,"Cc1ccc(-c2cnc(-n3cc(C(=O)O)cn3)cc2C#N)c(F)c1 [Compound 33, 1-[4-cyano-5-(2-fluoro-4-methylphenyl)pyridin-2-yl]-1H-pyrazole-4-carboxylic acid]"
2,1 to 5,"N#Cc1cc(-n2cc(C(=O)O)cn2)ncc1-c1cc(F)ccc1F [Compound 35, 1-[4-cyano-5-(2,5-difluorophenyl)pyridin-2-yl]-1H-pyrazole-4-carboxylic acid]"
3,1 to 5,"N#Cc1cc(-n2cc(C(=O)O)cn2)ncc1-c1ccccc1Cl [Compound 6, 1-[4-cyano-5-(2-chlorophenyl)pyridin-2-yl]-1H-pyrazole-4-carboxylic acid]"
4,1 to 5,"Cc1cccc(-c2cnc(-n3cc(C(=O)O)cn3)cc2C#N)c1C [Compound 38, 1-[4-cyano-5-(2,3-dimethylphenyl)pyridin-2-yl]-1H-pyrazole-4-carboxylic acid]"
5,1 to 5,"CSc1ccc(-c2cnc(-n3cc(C(=O)O)cn3)cc2C#N)cc1 [Compound 63, 1-{4-cyano-5-[4-(methylsulfanyl)phenyl]pyridin-2-yl}-1H-pyrazole-4-carboxylic acid]"
6,1 to 5,"Cc1ccc(F)c(-c2cnc(-n3cc(C(=O)O)c(N)n3)cc2C#N)c1 [Compound 104, 3-amino-1-[4-cyano-5-(2-fluoro-5-methylphenyl)pyridin-2-yl]-1H-pyrazole-4-carboxylic acid]"
7,1 to 5,"Cc1ccc(F)c(-c2cnc(-n3cc(C(=O)O)cn3)cc2C#N)c1 [Compound 34, 1-[4-cyano-5-(2-fluoro-5-methylphenyl)pyridin-2-yl]-1H-pyrazole-4-carboxylic acid]"
8,1 to 5,"COc1ccccc1-c1cnc(-n2cc(C(=O)O)cn2)cc1C#N [Compound 7, 1-[4-cyano-5-(2-methoxyphenyl)pyridin-2-yl]-1H-pyrazole-4-carboxylic]"
9,1 to 5,"N#Cc1cc(-n2cc(C(=O)O)cn2)ncc1-c1ccccc1F [Compound 5, 1-[4-cyano-5-(2-fluorophenyl)pyridin-2-yl]-1H-pyrazole-4-carboxylic acid]"
10,1 to 5,"Cc1cccc(-c2cnc(-n3cc(C(=O)O)cn3)cc2C#N)c1F [Compound 36, 1-[4-cyano-5-(2-fluoro-3-methylphenyl)pyridin-2-yl]-1H-pyrazole-4-carboxylic acid]"
11,1 to 5,"Cc1ccsc1-c1cnc(-n2cc(C(=O)O)cn2)cc1C#N [Compound 22, 1-[4-cyano-5-(3-methylthiophen-2-yl)pyridin-2-yl]-1H-pyrazole-4-carboxylic acid]"
